{"source": "the NIST ThermoML archive (doi:10.1021/je050147b)", "settings": "Liquid; for mass density: 101.33 kPa", "note": "Values joined by “and” are separate entries in the source; they are usually repeats but may differ in a detail not shown here. Identical values can stand only once. ± gives the expanded uncertainty stated by the source.", "data": [{"smiles": "CCCCn1cc[n+](C)c1.F[P-](F)(F)(F)(F)F", "note": "[1-butyl-3-methylimidazolium hexafluorophosphate]", "values": [{"measurement": "mass density", "setting": "273.1 K", "result": "1388.85 ± 4.7", "unit": "kg/m3"}, {"measurement": "viscosity", "setting": "273.15 K, 100 kPa", "result": "1717 ± 820", "unit": "mPa·s"}, {"measurement": "mass density", "setting": "278.1 K", "result": "1384.55 ± 4.7", "unit": "kg/m3"}, {"measurement": "viscosity", "setting": "278.15 K, 100 kPa", "result": "1119 ± 470", "unit": "mPa·s"}, {"measurement": "mass density", "setting": "283.1 K", "result": "1380.27 ± 4.7", "unit": "kg/m3"}, {"measurement": "viscosity", "setting": "283.15 K, 100 kPa", "result": "755 ± 280", "unit": "mPa·s"}, {"measurement": "viscosity", "setting": "288.15 K, 100 kPa", "result": "521 ± 160", "unit": "mPa·s"}, {"measurement": "mass density", "setting": "288.15 K", "result": "1375.99 ± 4.6", "unit": "kg/m3"}, {"measurement": "viscosity", "setting": "293.15 K, 100 kPa", "result": "369 ± 100", "unit": "mPa·s"}, {"measurement": "mass density", "setting": "293.15 K", "result": "1371.72 ± 4.6", "unit": "kg/m3"}, {"measurement": "viscosity", "setting": "298.15 K, 100 kPa", "result": "271 ± 62 mPa·s and 273 ± 63 mPa·s"}, {"measurement": "mass density", "setting": "298.15 K", "result": "1367.45 ± 4.6", "unit": "kg/m3"}, {"measurement": "viscosity", "setting": "298.15 K, 12100 kPa", "result": "329 ± 84", "unit": "mPa·s"}, {"measurement": "viscosity", "setting": "298.15 K, 24700 kPa", "result": "391 ± 110", "unit": "mPa·s"}, {"measurement": "viscosity", "setting": "298.15 K, 25700 kPa", "result": "390 ± 110", "unit": "mPa·s"}, {"measurement": "viscosity", "setting": "298.15 K, 50600 kPa", "result": "546 ± 180", "unit": "mPa·s"}, {"measurement": "viscosity", "setting": "298.15 K, 75800 kPa", "result": "761 ± 280", "unit": "mPa·s"}, {"measurement": "viscosity", "setting": "298.15 K, 100300 kPa", "result": "1047 ± 430", "unit": "mPa·s"}, {"measurement": "viscosity", "setting": "298.15 K, 125100 kPa", "result": "1432 ± 650", "unit": "mPa·s"}, {"measurement": "viscosity", "setting": "298.15 K, 125600 kPa", "result": "1461 ± 660", "unit": "mPa·s"}, {"measurement": "viscosity", "setting": "298.15 K, 150300 kPa", "result": "1995 ± 990", "unit": "mPa·s"}, {"measurement": "viscosity", "setting": "298.15 K, 174100 kPa", "result": 2694, "unit": "mPa·s"}, {"measurement": "viscosity", "setting": "303.15 K, 100 kPa", "result": "202 ± 38", "unit": "mPa·s"}, {"measurement": "mass density", "setting": "303.15 K", "result": "1363.19 ± 4.6", "unit": "kg/m3"}, {"measurement": "viscosity", "setting": "308.15 K, 100 kPa", "result": "158.4 ± 25", "unit": "mPa·s"}, {"measurement": "viscosity", "setting": "308.15 K, 900 kPa", "result": "159.7 ± 25", "unit": "mPa·s"}, {"measurement": "viscosity", "setting": "308.15 K, 9600 kPa", "result": "179.1 ± 31", "unit": "mPa·s"}, {"measurement": "viscosity", "setting": "308.15 K, 25800 kPa", "result": "221 ± 45", "unit": "mPa·s"}, {"measurement": "viscosity", "setting": "308.15 K, 50300 kPa", "result": "302 ± 73", "unit": "mPa·s"}, {"measurement": "viscosity", "setting": "308.15 K, 75600 kPa", "result": "412 ± 120", "unit": "mPa·s"}, {"measurement": "viscosity", "setting": "308.15 K, 100300 kPa", "result": "557 ± 180", "unit": "mPa·s"}, {"measurement": "viscosity", "setting": "308.15 K, 125200 kPa", "result": "750 ± 270", "unit": "mPa·s"}, {"measurement": "viscosity", "setting": "308.15 K, 140600 kPa", "result": "898 ± 350", "unit": "mPa·s"}, {"measurement": "viscosity", "setting": "308.15 K, 151000 kPa", "result": "1016 ± 410", "unit": "mPa·s"}, {"measurement": "viscosity", "setting": "313.15 K, 100 kPa", "result": "120 ± 15", "unit": "mPa·s"}, {"measurement": "mass density", "setting": "313.15 K", "result": "1354.95 ± 4.5 kg/m3 and 1354.96 ± 4.5 kg/m3"}, {"measurement": "viscosity", "setting": "323.15 K, 100 kPa", "result": "73.6 ± 6.3 mPa·s and 74.1 ± 6.3 mPa·s and 74.9 ± 6.5 mPa·s"}, {"measurement": "mass density", "setting": "323.15 K", "result": "1346.75 ± 4.5", "unit": "kg/m3"}, {"measurement": "viscosity", "setting": "323.15 K, 1300 kPa", "result": "74.9 ± 6.2", "unit": "mPa·s"}, {"measurement": "viscosity", "setting": "323.15 K, 3100 kPa", "result": "76.9 ± 6.5", "unit": "mPa·s"}, {"measurement": "viscosity", "setting": "323.15 K, 5600 kPa", "result": "78.2 ± 6.7", "unit": "mPa·s"}, {"measurement": "viscosity", "setting": "323.15 K, 10700 kPa", "result": "82.7 ± 7.4", "unit": "mPa·s"}, {"measurement": "viscosity", "setting": "323.15 K, 25800 kPa", "result": "98.9 ± 10", "unit": "mPa·s"}, {"measurement": "viscosity", "setting": "323.15 K, 50800 kPa", "result": "127.8 ± 17", "unit": "mPa·s"}, {"measurement": "viscosity", "setting": "323.15 K, 75800 kPa", "result": "173.5 ± 29", "unit": "mPa·s"}, {"measurement": "viscosity", "setting": "323.15 K, 100700 kPa", "result": "224 ± 46", "unit": "mPa·s"}, {"measurement": "viscosity", "setting": "323.15 K, 125500 kPa", "result": "281 ± 66", "unit": "mPa·s"}, {"measurement": "viscosity", "setting": "323.15 K, 150400 kPa", "result": "371 ± 100", "unit": "mPa·s"}, {"measurement": "viscosity", "setting": "323.15 K, 175200 kPa", "result": "481 ± 150", "unit": "mPa·s"}, {"measurement": "viscosity", "setting": "323.15 K, 200000 kPa", "result": "616 ± 210", "unit": "mPa·s"}, {"measurement": "viscosity", "setting": "323.15 K, 224600 kPa", "result": "784 ± 290", "unit": "mPa·s"}, {"measurement": "viscosity", "setting": "323.15 K, 249300 kPa", "result": "995 ± 400", "unit": "mPa·s"}, {"measurement": "viscosity", "setting": "333.15 K, 100 kPa", "result": "49.5 ± 3.5 mPa·s [middle of 4 runs]"}, {"measurement": "mass density", "setting": "333.15 K", "result": "1338.58 ± 4.4", "unit": "kg/m3"}, {"measurement": "viscosity", "setting": "333.15 K, 10700 kPa", "result": "55.8 ± 3.7", "unit": "mPa·s"}, {"measurement": "viscosity", "setting": "333.15 K, 26200 kPa", "result": "66 ± 4.9", "unit": "mPa·s"}, {"measurement": "viscosity", "setting": "333.15 K, 51100 kPa", "result": "85.6 ± 7.9", "unit": "mPa·s"}, {"measurement": "viscosity", "setting": "333.15 K, 75700 kPa", "result": "109.8 ± 13", "unit": "mPa·s"}, {"measurement": "viscosity", "setting": "333.15 K, 91100 kPa", "result": "128 ± 17", "unit": "mPa·s"}, {"measurement": "viscosity", "setting": "333.15 K, 100100 kPa", "result": "139.4 ± 20", "unit": "mPa·s"}, {"measurement": "viscosity", "setting": "343.15 K, 100 kPa", "result": "35.1 ± 2.5 mPa·s and 34.7 ± 2.5 mPa·s and 34.6 ± 2.5 mPa·s"}, {"measurement": "mass density", "setting": "343.15 K", "result": "1330.45 ± 4.4", "unit": "kg/m3"}, {"measurement": "viscosity", "setting": "343.15 K, 5500 kPa", "result": "37.2 ± 2.6", "unit": "mPa·s"}, {"measurement": "viscosity", "setting": "343.15 K, 10600 kPa", "result": "39.2 ± 2.8", "unit": "mPa·s"}, {"measurement": "viscosity", "setting": "343.15 K, 25700 kPa", "result": "45.6 ± 3.2", "unit": "mPa·s"}, {"measurement": "viscosity", "setting": "343.15 K, 50600 kPa", "result": "58 ± 3.9", "unit": "mPa·s"}, {"measurement": "viscosity", "setting": "343.15 K, 75600 kPa", "result": "73.7 ± 5.9", "unit": "mPa·s"}, {"measurement": "viscosity", "setting": "343.15 K, 100600 kPa", "result": "92.9 ± 9.3", "unit": "mPa·s"}, {"measurement": "viscosity", "setting": "343.15 K, 125400 kPa", "result": "116.2 ± 14", "unit": "mPa·s"}, {"measurement": "viscosity", "setting": "343.15 K, 140200 kPa", "result": "132.6 ± 18", "unit": "mPa·s"}, {"measurement": "viscosity", "setting": "343.15 K, 149900 kPa", "result": "144.4 ± 21", "unit": "mPa·s"}, {"measurement": "viscosity", "setting": "343.15 K, 172900 kPa", "result": "176.1 ± 30", "unit": "mPa·s"}, {"measurement": "viscosity", "setting": "353.15 K, 100 kPa", "result": "25.5 ± 1.8", "unit": "mPa·s"}, {"measurement": "mass density", "setting": "353.15 K", "result": "1322.38 ± 4.3", "unit": "kg/m3"}, {"measurement": "mass density", "setting": "363.15 K", "result": "1314.36 ± 4.3", "unit": "kg/m3"}]}]}
